≈ marks a conversion by molar mass, not a printed value. Like-named read-outs stand apart in the source and are kept apart here.
What was measured:
[1] = Stereo-microscopic observation of drug-containing hydrophilic matrix films and gels (finely-dispersed state / precipitation); type: physicochemical; design: key: ∘: contained in a finely-dispersed state; Δ: partially precipitated; conditions: gelatin film cast from HFIP, stereo microscope; for State of drug in gelatin film, Drug/gelatin mass proportion 0.1%: drug/gelatin 0.1%; for State of drug in gelatin film, Drug/gelatin mass proportion 1.0%: drug/gelatin 1.0%; for State of drug in gelatin film, Drug/gelatin mass proportion 5.0%: drug/gelatin 5.0%
Experimental: The term “in a finely-dispersed state” used herein refers to a condition in which the contained poorly water-soluble drug, which is a compound of a size that cannot be detected with a stereo microscope (MZ16A produced by Leica), is uniformly dispersed in a matrix, or a condition in which such a drug is in a molecular dispersion state in a matrix.
Paclitaxel (produced by LCL laboratories) was used as a poorly water-soluble compound. […] 1,1,1,3,3,3-hexafluoro-2-propanol solution (HFIP; 200 μL) containing paclitaxel (1 mg/mL) and gelatin (100 mg/mL; PSK gelatin produced by Nippi Inc.) was coated on a polypropylene dish (2 cm×2 cm×500 μm), followed by drying at an ordinary temperature for 15 hours. Thus, a paclitaxel-containing gelatin film was produced.
Upon observation with a stereo microscope (produced by Leica, MZ16A), precipitation of paclitaxel was not observed. […] In addition, the gel produced with HFIP and subjected to crosslinking with transglutaminase and water swelling was transparent.
Observation was carried out in the same manner as in Example 2.
Drug-containing gelatin films were produced in the same manner as in Example 1 except that paclitaxel used in Example 1 was replaced by drugs with concentrations listed in Table 1 below. Observation was carried out in the same manner as in Example 2. […]

[2] = Solubility in 1,1,1,3,3,3-hexafluoro-2-propanol (HFIP); conditions: for solubility: 1,1,1,3,3,3-hexafluoro-2-propanol (HFIP), organic solvent or mixture, thermodynamic from solid
Experimental: The solubility in hexafluoroisopropanol is determined as described below according to the present invention. A mixture is prepared by adding a compound to 1,1,1-3,3,3-hexafluoro-2-propanol while changing the concentration of the compound in a stepwise manner, and the concentration at which precipitation takes place is examined. Thus, the solubility of the compound in 1,1,1-3,3,3-hexafluoro-2-propanol is determined. In addition, a soluble/insoluble state is determined by confirming the presence of a deposit after centrifugation of the above mixture with a micro centrifuge (Chibitan II XX42CF00T produced by Tech-Jam) for 20 seconds.

[3] = upper dissolution limit - lower precipitation limit, samples at 30, 50, 100, 200, 500 mg/ml

| State of drug in gelatin film, Drug/gelatin mass proportion 0.1% [1] | State of drug in gelatin film, Drug/gelatin mass proportion 1.0% [1] | State of drug in gelatin film, Drug/gelatin mass proportion 5.0% [1] | solubility [2] [mg/mL] | Solubility in HFIP [2] [mg/mL] | SMILES | Solubility in HFIP [2, 3] [mg/mL] |
| --- | --- | --- | --- | --- | --- | --- |
| ∘ | ∘ | ∘ | 200 to 500 (≈ 1110 to 2780 mM) | – | CC(=O)Oc1ccccc1C(=O)O [Aspirin] | – |
| ∘ | ∘ | ∘ | 200 to 500 (≈ 1200 to 3010 mM) | – | CC12CCC(C(=O)C1=O)C2(C)C (centres unmarked) [Camphorquinone] | – |
| ∘ | Precipitated | Precipitated | – | 30 to 50 | CCN(CC)c1ccc2cc(-c3nc4ccccc4s3)c(=O)oc2c1 [Coumarin 6] | – |
| ∘ | ∘ | ∘ | 100 to 200 (≈ 124 to 248 mM) | – | CC(=O)O[C@@]12CO[C@@H]1C[C@H](O)[C@@]1(C)C(=O)[C@H](O)C3=C(C)[C@@H](OC(=O)[C@H](O)[C@@H](NC(=O)OC(C)(C)C)c4ccccc4)C[C@@](O)([C@@H](OC(=O)c4ccccc4)[C@H]21)C3(C)C [Docetaxel] | – |
| ∘ | ∘ | ∘ | 200 to 500 (≈ 234 to 586 mM) | – | CC(=O)O[C@H]1C(=O)[C@@]2(C)[C@H]([C@H](OC(=O)c3ccccc3)[C@]3(O)C[C@H](OC(=O)[C@H](O)[C@@H](NC(=O)c4ccccc4)c4ccccc4)C(C)=C1C3(C)C)[C@]1(OC(C)=O)CO[C@@H]1C[C@@H]2O [Paclitaxel] | 200 to 500 |
| ∘ | ∘ | Precipitated | 50 to 100 (≈ 198 to 396 mM) | – | O=C1NC(=O)C(c2ccccc2)(c2ccccc2)N1 [Phenytoin] | – |
| – | – | – | 200 to 500 (≈ 219 to 547 mM) | – | CO[C@H]1C[C@@H]2CC[C@@H](C)[C@@](O)(O2)C(=O)C(=O)N2CCCC[C@H]2C(=O)O[C@H]([C@H](C)C[C@@H]2CC[C@@H](O)[C@H](OC)C2)CC(=O)[C@H](C)/C=C(\C)[C@@H](O)[C@@H](OC)C(=O)[C@H](C)C[C@H](C)/C=C/C=C/C=C/1C [Rapamycin] | – |

| SMILES | State of drug in gelatin film, Drug/gelatin mass proportion 0.1% [1] | State of drug in gelatin film, Drug/gelatin mass proportion 1.0% [1] | State of drug in gelatin film, Drug/gelatin mass proportion 5.0% [1] | solubility [2] [mg/mL] | Solubility in HFIP [2] [mg/mL] | Solubility in HFIP [2, 3] [mg/mL] |
| --- | --- | --- | --- | --- | --- | --- |
| CCN(CC)c1ccc2c(C)cc(=O)oc2c1 [Coumarin 1] | ∘ | ∘ | ∘ | – | – | 200 to 500 |
| CN(C)c1ccc(N=Nc2ccccc2)cc1 [Methyl yellow] | ∘ | ∘ | Precipitated | – | – | 50 to 100 |
| C=C1CC[C@H](O)C/C1=C/C=C1\CCC[C@]2(C)[C@@H]([C@H](C)CCCC(C)C)CC[C@@H]12 [Vitamin D3] | ∘ | ∘ | ∘ | – | – | 200 to 500 |
